This is an account of results in PMC7210504 (Biochemistry, 2017).

Experiment [1] deals with T1, ChuY (Escherichia coli, UniProt Q8X5N4). Briefly: biochemical.
Experiment [2] concerns the target ChuY from Escherichia coli O157:H7 (anaerobilin reductase) (Escherichia coli O157:H7). Briefly: AUC.
Experiment [3] concerns the target T1, ChuY. Particulars: 30 μM NADPH; anaerobic, pH 8.1, 25 °C; substrate inhibition constant (kinetic).
Experiment [4] deals with T1, ChuY. Particulars: read-out: steady state parameters^a / Km ^app; 30 μM NADPH; anaerobic, pH 8.1, 25 °C.

On to `NC(=O)C1=CN([C@@H]2O[C@H](COP(=O)(O)OP(=O)(O)OC[C@H]3O[C@@H](n4cnc5c(N)ncnc54)[C@H](OP(=O)(O)O)[C@@H]3O)[C@@H](O)[C@H]2O)C=CC1` [NADPH], for which the equilibrium dissociation constant (Kd) (as a rule, the equilibrium constant for the complex coming apart) on ChuY [1] turned out to be 2.7 ± 0.2 µM. In the case of “ChuY from Escherichia coli O157:H7 (anaerobilin reductase) (enzyme)”, in experiment [2], the percent of the c(s) distribution (species consistent with a dimer) came out at 90% and the stoichiometry N (in general, the number of molecules, sites or subunits per partner or assembly) was 2. Turning to deuteroanaerobilin [DAB], the “equilibrium binding^b / Ki ^app” value on ChuY [3] stood at 14 ± 2 µM. Further, the Km on ChuY [4] was 1.6 ± 0.3 µM.
